Source: patent publication US20090269330A1, “FATTY ACID TRIGLYCERIDES FOR MAKING BIOCOMPATIBLE COATINGS” (ZISCOAT NV, priority 2006, published 2009)

Assay: In vitro drug release from enzymatically transesterified triglyceride coating on stainless steel samples
Type: physicochemical
Conditions: 5 weight % paclitaxel in enzymatically transesterified triglyceride coating; PBS with 0.02% (w/v) sodium azide, 37° C.; after 5 weeks; HPLC
Procedure: Transesterified triglyceride mixtures were made using the following procedure: • 30 weight % tristearin, 30 weight % triolein, 40 weight % trilinolein are put in a vacuum furnace at 70° C. during 1 hour • the mixture is stirred during 30 minutes at 75° C. • 1% of 1,3 specific lipase (lipozyme) is added to the mixture at 75° C. during 1 hour. • Filtration over Whatman no. 4 filter. The slip melting point of the resulting mixture was 60° C.
5 weight % of paclitaxel (taxol) and acetone were added to this triglyceride mixture, heated to 50° C. and stirred until homogeneous. Stainless steel samples were dipped into the solution followed by air-drying. The samples were put into 5 ml of release medium (PBS with 0.02% (w/v) sodium azide) at 37° C. and continuously shaken with a rocking table. At different time points, samples were put in a new vial with fresh release medium. The medium of the previous vials were analyzed with HPLC to determine the concentration of paclitaxel that was released. After the test, the remaining paclitaxel was liberated from the coating on the stainless steel samples by dissolving the coating in acetone at 50° C.

## CC(=O)O[C@H]1C(=O)[C@@]2(C)[C@H]([C@H](OC(=O)c3ccccc3)[C@]3(O)C[C@H](OC(=O)[C@H](O)[C@@H](NC(=O)c4ccccc4)c4ccccc4)C(C)=C1C3(C)C)[C@]1(OC(C)=O)CO[C@@H]1C[C@@H]2O [paclitaxel]
  percentage of drug released from coating: 75%
